Assay [1] concerns NF54. Description: parasite proliferation assay in infected red blood cells (SYBR Green I), NF54 strain. It is filed as cell-based. To be noted: Plasmodium falciparum, 3D7 / NF54, Erythrocyte; cell marked (NF54): NF54 strain instead of 3D7; read-out: EC50 (NF54), printed in the 3D7 strain column. From the text:
(§1) Compounds of the invention can be assayed to measure their capacity to inhibit proliferation of parasitemia in infected red blood cells. The proliferation is quantified by the addition of SYBR Green I (INVITROGEN)® dye which has a high affinity for double stranded DNA.

Assay [2] has as its system W2 strain. Briefly: parasite proliferation assay in infected red blood cells (SYBR Green I), W2 strain. The note with it: Plasmodium falciparum, Erythrocyte. It is filed as cell-based.
Excerpt: as §1

The test system of assay [3] is W2 strain. The assay is described as above. It is filed as cell-based, Plasmodium falciparum. The note with it: Plasmodium falciparum, Erythrocyte.
Excerpt: as §1

In assay [4] the test system is 3D7 P. falciparum strain. Briefly: parasite proliferation assay in infected red blood cells (SYBR Green I). Type of assay: cell-based, Plasmodium falciparum. The note with it: Plasmodium falciparum, 3D7, Erythrocyte, 3D7 strain; read-out: EC50 3D7 strain. The gist of the method:
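P. falciparum 3D7 grown in O+ human erythrocytes to 3–8% parasitemia and exposed to compounds. Proliferation read as the increase in parasite DNA. Detection used SYBR Green I in saponin/triton-X/EDTA lysis buffer, with overnight lysis at room temperature.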

For the compound `CC1(C)c2nc(-c3ccc(F)cc3)c(Oc3ccc(F)c(F)c3)n2CCN1C(=O)CN` [Compound 711], in assay [1], the EC50 worked out at 34 nM. Regarding `COc1ccc(-c2ccc3n2[B-](F)(F)[N+]2=C(C)C(CCC(=O)NCCCCCC(=O)NCC(=O)N4CCn5c(nc(-c6ccc(F)cc6)c5Nc5ccc(F)cc5)C4(C)C)=C(C)C2=C3)cc1` [Compound 732], the EC50 in assay [2] is 1440 nM; in assay [1], 1220 nM.

`Cc1ccc(S(=O)(=O)c2c(-c3ccc(F)cc3)nc3n2CCN(C(=O)CN)C3(C)C)cc1` [Compound 725]: the EC50 in assay [1] is 5210 nM. Turning to `CC1(C)c2nc(-c3ccc(F)cc3)c(Nc3ccc(F)cc3)n2CC(=O)N1CCN` [Compound 687, 7-(2-aminoethyl)-2-(4-fluorophenyl)-3-(4-fluorophenylamino)-8,8-dimethyl-7,8-dihydroimidazo[1,2-a]pyrazin-6(5H)-one], the half-maximal effective concentration (EC50) in assay [2] stood at 3350 nM; in assay [1] it was 3420 nM.

Turning to `CC1(C)c2nc(-c3ccc(F)cc3)c(Nc3ccc(F)cc3)n2CC(=O)N1CCO` [Compound 688], the concentration for a half-maximal effect (EC50) in assay [2] is 134 nM; in assay [1], 106 nM. Consider `CC1(C)c2nc(-c3ccc(F)cc3)c(Nc3ccc(F)cc3)n2CCN1C(=O)CNC(=O)CCC1=[N+]2C(=Cc3ccc(-c4ccccc4)n3[B-]2(F)F)C=C1` [Compound 731], for which the figures for the EC50 in assay [2] and in assay [1] were 5610 nM and 2270 nM, respectively. On to `Cc1cc(Oc2c(-c3ccc(F)cc3)nc3n2CCN(C(=O)CN)C3(C)C)ccc1F` [Compound 712], for which, in assay [1], the EC50 amounted to 19 nM. Same read-out and setting: for `CC1(C)c2nc(-c3ccc(F)cc3)c(Oc3ccc(Cl)cc3)n2CCN1C(=O)CN` [Compound 710] the value was 28 nM. Regarding `CC1(C)NCCn2c1nc(-c1ccc(F)cc1)c2Nc1ccc(C#N)cc1` [Compound 426], the EC50 in assay [3] turned out to be 271 nM; in assay [4], 180 nM. Take `N[C@@H](CC1CC1)C(=O)N1CCn2c(nc(-c3ccc(F)cc3)c2Nc2ccc(F)c(F)c2)C1` [Compound 438]: the EC50 in assay [3] came to 23 nM; in assay [4], 20 nM. For `CC(C)[C@H](N)C(=O)N1CCn2c(nc(-c3ccc(F)cc3)c2Nc2ccc(F)c(F)c2)C1` [Compound 434] the same measures were 19 nM and 20 nM. For `CC1(C)c2nc(-c3ccc(F)cc3)c(NC3CCCCC3)n2CCN1C(=O)CN` [Compound 531] the same measures were 57 nM and 40 nM. For `Cc1ccc(Nc2c(-c3ccc(F)cc3)nc3n2CCN(C(=O)[C@@](C)(N)CO)C3)cc1` [Compound 504] the same measures were 93 nM and 90 nM.

As to `Cc1ccc(Nc2c(-c3cccc(F)c3)nc3n2C(C)(C)CN(C(=O)C(C)(C)N)C3)cc1` [Compound 593], the half-maximal effective concentration (EC50) turned out to be 3940 nM in assay [3] and 5060 nM in assay [4]. For `CC1(C)Cn2c(nc(-c3ccc(F)cc3)c2Nc2ccc(Cl)cc2)CN1` [Compound 558] the same measures were 89 nM and 60 nM.

Regarding `CC1(C)c2nc(-c3ccc(F)cc3)c(CC3CCCCC3)n2CCN1C(=O)CN` [Compound 699], the concentration for a half-maximal effect (EC50) in assay [1] was 678 nM. For `CC1(C)NC(=O)Cn2c1nc(-c1ccc(F)cc1)c2Nc1ccc(Cl)c(F)c1` [Compound 511], the EC50 in assay [3] was found to be 65 nM; in assay [4], 40 nM. As for `Cc1ccc(Nc2c(-c3ccc(F)cc3)nc3n2C(C)(C)CN(C)C3(C)C)cc1` [Compound 539], the concentration giving a half-maximal response (EC50) in assay [3] amounted to 3120 nM; in assay [4], 3060 nM.

`CC1(C)NCCn2c1nc(-c1ccc(F)cc1)c2Nc1cccc(C(F)(F)F)c1` [Compound 515]: the 50% effective concentration (EC50) was found to be 34 nM in assay [3] and 40 nM in assay [4]. For `CC(C)C[C@H](N)C(=O)N1CCn2c(nc(-c3ccc(F)cc3)c2Nc2ccc(F)c(F)c2)C1` [Compound 439] the same measures were 40 nM and 30 nM.

A word on the EC50: it is the concentration at which the effect is half-maximal.

The values are drawn from patent publication US9469645B2, “Compounds and compositions for the treatment of parasitic diseases” (Novartis AG, priority 2009, dated 2016).
